Data: patent US9504672B2, “Compositions and methods for treating or preventing pneumovirus infection and associated diseases” (MicroDose Therapeutx, Inc., priority 2012, dated 2016)
Like-named read-outs stand apart in the source and are kept apart here.

What was measured:
[1] = 40° C./75% RH, 4 weeks
[2] = human, in vivo
Method: The study consisted of 3 visits: Visit 1 (Screening), Visit 2 (Dosing) and Visit 3 (Follow up); subjects furloughed from the clinic between Visits 2 and 3.
Both active and matched placebo were administered via face mask inhalation from a proprietary delivery system (MicroDose inhaler).
Single doses were administered in the morning. TID doses will be administered at 6 hour intervals, with the 1st of the 3 doses administered in the morning.
Pharmacokinetic variables (Cmax, Tmax, AUC, T1/2) were evaluated based on blood samples drawn at Visit 2.

[3] = clinical; settings: human, in vivo, 132 ug
Excerpt: (§2) In summary, the MicroDose Inhaler operation comprises the drug powder contained in a protective blister until delivery. The blister is pierced externally and then placed in contact with a piezoelectric vibrator within the MicroDose Inhaler. When the patient inhales, an airflow sensor automatically turns on the piezo which provides energy to deaggregate the particles of powder and aerosolizes them into the inhalation airstream, providing synchronized delivery. The MicroDose Inhaler was triggered by pressure drop and programmed to produce a series of brief aerosol bursts of predetermined duration within the range of 0.1 to 2.0 seconds, preferably 0.1 seconds, early during each inhalation cycle and for 16 consecutive breaths. The studies were conducted as follows:
(§3) Subjects were enrolled in cohorts of 12 subjects. […] The study consisted of 3 visits: Visit 1 (Screening), Visit 2 (Dosing), Visit 3 (Follow up) and subjects remained at the study site for pharmacokinetic (PK) sampling, spirometry, and safety assessments. […] Day 1 was the first day of dosing and Day 10 was the final day of dosing, following which subjects remained at the study site for 24 hours following the last dose for PK sampling and spirometry. Visit 3 was a follow-up visit, 7 to 10 days after the last dose. Cohorts were dosed as follows:
(§4) The first doses for twice daily (BID) and three times daily (TID) were administered in the morning, starting at approximately 0700 hours on each day of dosing. BID doses were administered at 12 hour intervals and TID doses were administered at 6 hour intervals each dose day.
(§5) Pharmacokinetic endpoints (Cmax, Tmax, AUC, T1/2) and dose proportionality was assessed based on a limited number of plasma samples following the first dose on Day 1 and last dose on Day 10
(§6) Pharmacokinetic variables (Cmax, Tmax, AUC, T1/2) were evaluated based on blood samples drawn following first dose (Days 1-2) and last dose (Days 10-11).

[4] = in vivo
Excerpt: The purpose of the following studies was to assess the safety, tolerability, local and systemic pharmacokinetics of single and multiple doses of MDT-637 P3 in healthy volunteers and asthmatics.
(§1) In summary, the MicroDose Inhaler operation comprises the drug powder contained in a protective blister until delivery. The blister is pierced externally and then placed in contact with a piezoelectric vibrator within the MicroDose Inhaler. When the patient inhales, an airflow sensor automatically turns on the piezo which provides energy to deaggregate the particles of powder and aerosolizes them into the inhalation airstream, providing synchronized delivery. The MicroDose Inhaler was triggered by pressure drop and programmed to produce a series of brief aerosol bursts of predetermined duration within the range of 0.1 to 2.0 seconds, preferably 0.1 seconds, early during each inhalation cycle and for 16 consecutive breaths.

[5] = Stability of lactose formulation at 40° C./75% RH, sealed glass bottles, 39 weeks; format: physicochemical; settings: lactose formulation 6.3% w/w
Method: Formulation of the P-3 dihydrate form of the API with lactose (6.3% w/w) was placed on stability 40° C./75% RH in sealed glass bottles for 39 weeks. After samples removal, the lactose was removed by dissolution in purified water. The reference formulation was also subjected to the same lactose extraction procedure to eliminate the possibility for form conversion in water.

[6] = Competitive slurry stability study between P-2 and P-3 (PXRD quantitative phase analysis); format: physicochemical; settings: 50/50 acetonitrile/water, 25° C., over 10 days
[7] = Crystal (skeletal) density by nitrogen pycnometry; format: physicochemical
[8] = Particle size of micronized material (Sympatec HELOS & RODOS); format: physicochemical
[9] = human, in vivo; remark: listed apart in the source
Excerpt: as §2, §3, §4, §5, §6

[10] = Bulk powder density and flow indices (volumetric); format: physicochemical
[11] = Specific surface area (BET); format: physicochemical
[12] = Storage stability of micronized API in amber glass bottles (DSC, PXRD); format: physicochemical; settings: 25° C./60% RH and 40° C./75% RH, through 12 months
Method: The micronized, P-3 dihydrate material was stored in 1.85 mL amber bottles with Teflon lined caps. The 25° C./60% RH and 40° C./75% RH simulated storage and worst-case storage conditions correspondingly.

[13] = Slurry of equal mixture of six phases in 75/25 acetone-water (PXRD); format: physicochemical; settings: 25° C., 12 days, listed as P-3
Method: An equal powder mixture of six known phases (P-2, P-3, P-4, P-6, P-7 and P-8), 50 mg each were stirred in 75/25 acetone-water solvent (50 mL) at 25° C. over 12 days.

[14] = Critical water activity by DVS sorption/desorption isotherms; format: physicochemical; settings: 20° C.
Excerpt: The characteristic gravimetric loss of water is between 1-4.5% w/w.
The characteristic gravimetric loss of water for P-3 dihydrate is between 5.5-8.5% w/w. The profound difference of the DVS curves between the P-2 and P-3 forms can be utilized as a secondary technique for quantitative phase analysis of these forms.

[15] = for Total Imp/Deg: listed as P224-163-1; for number of impurity peaks: listed as P-3
Method: Forced degradation experiments consisted of placing solid samples of P-2 hydrate and P-3 dihydrate materials in sealed glass bottles at 120° C. for 7 days.

[16] = human, in vivo; remark: listed apart in the source
Excerpt: as §1, with “breaths. The studies were conducted as follows:” for “breaths.”
Study 3: A Double-Blind, Randomized, 3 Period Crossover, Single Ascending Dose Study to Assess the Safety and Tolerability of Inhaled MDT-637 P3 in Subjects with Intermittent or Mild-to-Moderate Persistent Asthma (Asthma Trial)
The primary objective of Study 3 was to assess the safety and tolerability of MDT-637 P3 when inhaled by subjects with Intermittent, or Mild-to-Moderate Persistent, Asthma. A secondary objective of Study 3 was to determine the rate and extent of systemic absorption of MDT-637 and trough nasal wash MDT-637 drug concentrations following dry powder inhalation dosing.
Each subject was dosed on 3 separate days during the study. Each subject received an initial dose of placebo (Period 1), followed by random allocation at Period 2 to a single dose of nasally inhaled MDT-637 P3 or double blind placebo. After an observation and furlough period, subjects returned for Period 3 to receive three doses of study drug (MDT-637 P3 or placebo) over a single day as listed below. The study consisted of 5 visits: Visit 1 (Screening), Visits 2, 3 and 4 (Dosing), and Visit 5 (Follow up); subjects were furloughed from the clinic for 6 up to 14 days between Visits 3 and 4 and 7-8 days between Visit 4 and 5. Subjects who met all of the inclusion criteria and none of the exclusion criteria (Table 19, FIG. 29) at Visit 1 were eligible to return for Visit 2 within 42 days of screening. Subjects were admitted to the study center twice, once for Visit 2 and again for Visit 4. Visit 5, was a safety follow up (outpatient) visit.
The doses of MDT-637 P3 were determined based on previous clinical experience in Study 1. Both placebo and active were administered as a dry powder for nasal inhalation via a face mask using a MicroDose Inhaler device. At Visit 2, all 10 patients were dosed with placebo Once Daily. At Visit 3, subjects were randomly allocated so that 8 subjects were dosed with MDT-637 P3 Once Daily 66 mcg and 2 subjects received double blind placebo. At Visit 4, subjects were again randomly allocated so that 8 subjects were dosed with MDT-637 TID 132 mcg and 2 subjects received double blind placebo.
Pharmacokinetic variables (Cmax, Tmax, AUC, T1/2) were evaluated based on blood samples drawn at Visit 4.

In the case of `Cc1nnnn1/N=C/c1ccc(O)c(C(c2ccc(O)cc2)c2cc(/C=N/n3nnnc3C)ccc2O)c1` [P-3 dihydrate, phenol, 2,2′-[(4-hydroxyphenyl)methylene]bis[4-[[(5-methyl-1H-tetrazol-1-yl)imino]methyl]]], the Assay ([1]; open dish, listed as P-3) is reported as 96.7%, the “Rel Subs” value ([1]; open dish, listed as P-3) is reported as 0.67% and the Water ([1]; open dish, listed as P-3) is reported as 5.9%. For the same compound, the “change of form / solid-state stability (DSC and PXRD)” value ([1]; open wide glass bottles) was “no change of form”, the chemical stability ([1]; open wide glass bottles) was “Acceptable chemical stability” and the “changes in pulmonary function / pulmonary AEs” value [2] was “No significant changes in pulmonary function or reports of pulmonary AEs”. The “clinically significant changes in labs, vital signs, ECGs, physical exams” value (from here on “clinically significant changes in labs”) [2] was “No clinically significant changes”, the “treatment emergent adverse event considered possibly related by PI” value [2] was “Mild dizziness” and the nasal wash levels ([2]; 24 h) was “> MDT-637 P3's IC50 for RSV”. For the same compound, the AUC(0-t) [3] was 1.16 ng·h/mL, the “clinically significant changes in ECG, laboratory values, vital signs or physical exam” value [4] was “no clinically significant changes” and the “pulmonary adverse events or changes in pulmonary function” value [4] was “no pulmonary adverse events or changes in pulmonary function were observed”. For the same compound, the serious adverse events [4] was “no serious adverse events were observed”, the systemic exposure [4] was “highly consistent and low systemic exposure” and the “change of crystal form in formulation with lactose” value [5] was “stable against solid-state conversion”. For the same compound, the “form conversion in competitive slurry” value [6] was “converts to P-2”, the “Crystal (skeletal) density” value [7] was 1.61 g/mL and the “Characteristic medium volume particle size (micronized)” value [8] was 1.5 μm. For the same compound, the “CVs of PK exposure” value [9] was 15-30%, the “clinically significant changes in labs” value [9] was “No clinically significant changes” and the “TEAEs considered related to study treatment” value ([9]; 10 days) was 5 TEAEs. The “subjects reporting TEAEs” value ([9]; 10 days) was 13 subjects, the “subjects reporting no TEAEs” value ([9]; 10 days) was 25 subjects and the “total TEAEs overall” value ([9]; 10 days) was 20 TEAEs. For the same compound, the Carr index [10] was 27.5%, the Hausner ratio [10] was 1.38 and the “Poured bulk powder density” value [10] was 0.22 g/mL. The “Tapped bulk powder density” value [10] was 0.30 g/mL, the Specific surface area [11] was 11.0 m^2/g and the “change in form (DSC and PXRD)” value [12] was “no change in form was observed”. For the same compound, the “form conversion / stability in six-phase slurry” value [13] was “convert to P-2 hydrate”, the “transition point (monohydrate)” value ([14]; 1% RH steps, first of two transition points) was “approximately 3 % RH” and the “transition point (dihydrate)” value ([14]; 1% RH steps, second of two transition points) was roughly 13 % RH. For the same compound, the “Characteristic relative humidity of dehydration (20° C.)” value [14] was 3-17%, the “Grand Total” value ([15]; 120C/7D) was 99.8 Area % and the “Total Imp/Deg” value ([15]; 120C/7D) was 6.49 Area %. For the same compound, the “Impurity/Degradation Product A” value ([15]; 7 days) was 0.12 Area %, the “Impurity/Degradation Product B” value ([15]; 7 days) was 3.60 Area % and the “Impurity/Degradation Product C” value ([15]; 7 days) was 0.17 Area %. The “Impurity/Degradation Product D” value ([15]; 7 days) was 0.48 Area %, the “Impurity/Degradation Product E” value ([15]; 7 days) was 0.28 Area % and the “Impurity/Degradation Product F” value ([15]; 7 days) was 0.08 Area %. For the same compound, the “Impurity/Degradation Product G” value ([15]; 7 days) was 0.05 Area %, the “Impurity/Degradation Product H” value ([15]; 7 days) was 0.43 Area % and the “Impurity/Degradation Product I” value ([15]; 7 days) was 0.17 Area %. The “Impurity/Degradation Product K” value ([15]; 7 days) was 0.13 Area %, the “Impurity/Degradation Product L” value ([15]; 7 days) was 0.06 Area % and the “Impurity/Degradation Product M” value ([15]; 7 days) was 0.09 Area %. The “Impurity/Degradation Product N” value ([15]; 7 days) was 0.07 Area %, the “Impurity/Degradation Product O” value ([15]; 7 days) was 0.37 Area % and the “Impurity/Degradation Product P” value ([15]; 7 days) was 0.36 Area %. The “Impurity/Degradation Product Q” value ([15]; 7 days) was 0.05 Area %, the “Grand Total” value ([15]; CTRL) was 99.9 Area % and the “Total Imp/Deg” value ([15]; CTRL) was 1.16 Area %. For the same compound, the “number of impurity peaks” value ([15]; control) was 6 peaks, the “number of impurity peaks” value ([15]; stressed sample, 120° C. for 7 days) was 16 peaks and the “clinically significant changes in labs” value [16] was “No clinically significant changes”. For the same compound, the “clinically significant changes in pulmonary function / pulmonary AEs” value [16] was “No clinically significant changes in pulmonary function or reports of pulmonary AEs”, the “pharmacokinetics, asthmatic vs healthy population” value [16] was “comparable between the healthy and asthmatic population” and the “subjects reporting adverse events” value ([16]; 3 separate dosing days) was 2/10. The “subjects reporting no adverse events” value ([16]; 3 separate dosing days) was 8/10.
